Assay results published in patent publication US20260347364A1, “PYRAZOLO[4,3-F]QUINAZOLINE DERIVATIVES AS MODULATORS OF G12D MUTANT KRAS USEFUL FOR THE TREATMENT OF CANCER” (JAZZ PHARMACEUTICALS IRELAND LTD., priority 2023, published 2026).

What was measured:
KRAS G12D = target: T1, KRAS G12D (Homo sapiens, UniProt P01116, G12D); test: HTRF nucleotide exchange assay, KRAS G12D; type: biochemical; settings: class symbols; for IC50: HTRF nucleotide exchange assay (NEA)
T1 construct: aa1-188 KRAS WT, HRAS WT, NRAS WT, or KRAS containing the G12D
Description: (§1) HTRF Nucleotide Exchange Assay Method
(§2) The capacity of compounds to bind KRAS G12D, other KRAS mutants and wildtype RAS isoforms was quantified using a HTRF nucleotide exchange assay. Recombinant human RAS protein (2 nM; aa1-188 KRAS WT, HRAS WT, NRAS WT, or KRAS containing the G12D, G13D or Q61H amino acid substitutions, or 4 nM KRAS; aa1-188 containing the G12V, G12C, G12A or G12S amino acid substitution, an N-terminal 6× His-tag and leader sequence), and 2 nM Europium-labeled anti-6× His antibody were mixed in assay buffer (10 mM HEPES pH 7.3, 150 mM NaCl, 5 mM MgCl2, 0.05% BSA, 0.0025% NP-40 and 100 mM KF) with various concentrations of compound in a 384-well plate and a volume of 5 μL. After a 60-minute incubation at room temperature, 5 μl of 200 nM EDA-GTP-DY647P1 (diluted in assay buffer) was added to the plate. Following 30-minute incubation at room temperature, time-resolved fluorescence was measured on a PerkinElmer Envision plate reader. DMSO (0.3%) and unlabeled GDP (1 μM) or equivalent tool compound were used to generate the Max and Min assay signals, respectively. Data was analysed using a four-parameter logistic model to calculate IC50 values, with at least two independent replicates were performed for each compound. The results are presented as IC50s in Table 29 where “A” corresponds to an IC50 ≤10 nM, “B” to an IC50 >10 nM up to 100 nM, “C” is >100 nM up to 10 μM, “D” represents <49% inhibition at 10 μM and ND=not determined: […]

KRAS WT = target: T2, KRAS WT (Homo sapiens, UniProt P01116); test: HTRF nucleotide exchange assay, KRAS WT; type: biochemical; settings: class symbols; for IC50: HTRF nucleotide exchange assay (NEA)
T2 construct: aa1-188 KRAS WT
Description: as §1, §2

IC50 (KRAS G12D) [nM] | IC50 (KRAS WT) [nM] | KRAS^WT NEA (KRAS WT) | KRAS^G12D NEA (KRAS G12D) | Compound
≤ 10 | ≤ 10 | – | – | CCc1c(F)ccc2cc(O)cc(-c3c(C)c4nc(OC[C@@]56CCCN5C[C@H](F)C6)nc(N5CCCn6nc(C(=O)N(C)C)c(F)c6C5)c4c4cn(C)nc34)c12 [Example 180, 5-[4-(8-ethyl-7-fluoro-3-hydroxy-1-naphthyl)-2,5-dimethyl-7-[[(2R,8S)-2-fluoro-1,2,3,5,6,7-hexahydropyrrolizin-8-yl]methoxy]pyrazolo[4,3-f]quinazolin-9-yl]-3-fluoro-N,N-dimethyl-4,6,7,8-tetrahydropyrazolo[1,5-a][1,4]diazepine-2-carboxamide]
≤ 10 | ≤ 10 | – | – | CCc1c(F)ccc2cc(O)cc(-c3c(C)c4nc(OC[C@@]56CCCN5C[C@H](F)C6)nc(N5CCCn6nc(C(=O)N(C)C)cc6C5)c4c4cn(C)nc34)c12 [Example 80, 5-[4-(8-ethyl-7-fluoro-3-hydroxy-1-naphthyl)-2,5-dimethyl-7-[[(2R,8S)-2-fluoro-1,2,3,5,6,7-hexahydropyrrolizin-8-yl]methoxy]pyrazolo[4,3-f]quinazolin-9-yl]-N,N-dimethyl-4,6,7,8-tetrahydropyrazolo[1,5-a][1,4]diazepine-2-carboxamide]
≤ 10 | ≤ 10 | – | – | CCc1c(F)ccc2cc(O)cc(-c3c(F)c4nc(OC[C@@]56CCCN5C[C@H](F)C6)nc(N5CCC(O)CC5)c4c4cn(C)nc34)c12 [Example 177, 1-[4-(8-ethyl-7-fluoro-3-hydroxy-1-naphthyl)-5-fluoro-2-methyl-7-[[(2R,8S)-2-fluoro-1,2,3,5,6,7-hexahydropyrrolizin-8-yl]methoxy]pyrazolo[4,3-f]quinazolin-9-yl]piperidin-4-ol]
≤ 10 | ≤ 10 | – | – | CCc1c(F)ccc2cc(O)cc(-c3c(F)c4nc(OC[C@@]56CCCN5C[C@H](F)C6)nc(N5CCOCC(C)(O)C5)c4c4cn(C)nc34)c12 (stereo partly drawn) [Example 92, 4-[4-(8-ethyl-7-fluoro-3-hydroxy-1-naphthyl)-5-fluoro-2-methyl-7-[[(2R,8S)-2-fluoro-1,2,3,5,6,7-hexahydropyrrolizin-8-yl]methoxy]pyrazolo[4,3-f]quinazolin-9-yl]-6-methyl-1,4-oxazepan-6-ol]
100 to 10000 | – | D (<49% inhibition at 10 μM) | – | CCc1c(F)ccc2cc(O)cc(-c3cc4nc(OC[C@]5(C)CCCN5)nc(N5CCCn6nc(C(=O)N(C)C)cc6C5)c4c4cn(C)nc34)c12 [Example 53, 5-[4-(8-ethyl-7-fluoro-3-hydroxy-1-naphthyl)-2-methyl-7-[[(2S)-2-methylpyrrolidin-2-yl]methoxy]pyrazolo[4,3-f]quinazolin-9-yl]-N,N-dimethyl-4,6,7,8-tetrahydropyrazolo[1,5-a][1,4]diazepine-2-carboxamide]
10 to 100 | 10 to 100 | – | – | CCc1c(F)ccc2cc(O)cc(-c3cc4nc(OCC5(CN(C)C)CC5)nc(N5CCCOCC5)c4c4cn(C)nc34)c12 [Example 30, 4-[7-[[1-[(dimethylamino)methyl]cyclopropyl]methoxy]-2-methyl-9-(1,4-oxazepan-4-yl)pyrazolo[4,3-f]quinazolin-4-yl]-5-ethyl-6-fluoro-naphthalen-2-ol]
≤ 10 | ≤ 10 | – | – | CCc1c(F)ccc2cc(O)cc(-c3c(F)c4nc(OCC5(CN(C)C)CC5)nc(N5CCOC[C@@](C)(O)C5)c4c4cn(C)nc34)c12 [Example 245, (6S)-4-[7-[[1-[(dimethylamino)methyl]cyclopropyl]methoxy]-4-(8-ethyl-7-fluoro-3-hydroxy-1-naphthyl)-5-fluoro-2-methyl-pyrazolo[4,3-f]quinazolin-9-yl]-6-methyl-1,4-oxazepan-6-ol]
≤ 10 | ≤ 10 | – | – | CCc1c(F)ccc2cc(O)cc(-c3c(C)c4nc(OCC5(CN6CCOCC6)CC5)nc(N5CCOCC(C)(O)C5)c4c4cn(C)nc34)c12 (stereo not shown) [Example 149, 4-[4-(8-ethyl-7-fluoro-3-hydroxy-1-naphthyl)-2,5-dimethyl-7-[[1-(morpholinomethyl)cyclopropyl]methoxy]pyrazolo[4,3-f]quinazolin-9-yl]-6-methyl-1,4-oxazepan-6-ol]
– | 100 to 10000 | – | D (<49% inhibition at 10 μM) | CCc1c(F)ccc2cc(O)cc(-c3cc4nc(OC[C@@H]5C[C@H](C)CN5)nc(N5CCCn6nc(C(=O)N(C)C)cc6C5)c4c4cn(C)nc34)c12 [Example 49, 5-[4-(8-ethyl-7-fluoro-3-hydroxy-1-naphthyl)-2-methyl-7-[[(2S,4S)-4-methylpyrrolidin-2-yl]methoxy]pyrazolo[4,3-f]quinazolin-9-yl]-N,N-dimethyl-4,6,7,8-tetrahydropyrazolo[1,5-a][1,4]diazepine-2-carboxamide]
≤ 10 | 10 to 100 | – | – | Cc1cc2[nH]ncc2c(-c2cc3nc(OC[C@@]45CCCN4C[C@H](F)C5)nc(N4CCCn5nc(C(=O)N(C)C)cc5C4)c3c3cn(C)nc23)c1C1CC1 [Example 74, 5-[4-(5-cyclopropyl-6-methyl-1H-indazol-4-yl)-2-methyl-7-[[(2R,8S)-2-fluoro-1,2,3,5,6,7-hexahydropyrrolizin-8-yl]methoxy]pyrazolo[4,3-f]quinazolin-9-yl]-N,N-dimethyl-4,6,7,8-tetrahydropyrazolo[1,5-a][1,4]diazepine-2-carboxamide]
10 to 100 | 10 to 100 | – | – | CCc1c(F)ccc2cc(O)cc(-c3cc4nc(OC[C@@]56CCCN5C[C@H](F)C6)nc(N5CCC6CC6(O)C5)c4c4cn(C)nc34)c12 (stereo partly drawn) [Example 127, 3-[4-(8-ethyl-7-fluoro-3-hydroxy-1-naphthyl)-2-methyl-7-[[(2R,8S)-2-fluoro-1,2,3,5,6,7-hexahydropyrrolizin-8-yl]methoxy]pyrazolo[4,3-f]quinazolin-9-yl]-3-azabicyclo[4.1.0]heptan-1-ol]
≤ 10 | ≤ 10 | – | – | CCc1c(F)ccc2cc(O)cc(-c3c(C)c4nc(OC[C@]5(C)CCCN5)nc(N5CCC[C@@](C)(O)C5)c4c4cn(C)nc34)c12 (mixture of isomers) [Example 211, (3R)-1-[4-(8-ethyl-7-fluoro-3-hydroxy-1-naphthyl)-2,5-dimethyl-7-[[rac-(2S)-2-methylpyrrolidin-2-yl]methoxy]pyrazolo[4,3-f]quinazolin-9-yl]-3-methyl-piperidin-3-ol]
100 to 10000 | 10 to 100 | – | – | CCc1c(F)ccc2cc(O)cc(-c3cc4nc(OC[C@@]56CCCN5C[C@H](F)C6)nc(N5CCC(CO)CC5)c4c4cn(C)nc34)c12 [Example 113, 5-ethyl-6-fluoro-4-[9-[4-(hydroxymethyl)-1-piperidyl]-2-methyl-7-[[(2R,8S)-2-fluoro-1,2,3,5,6,7-hexahydropyrrolizin-8-yl]methoxy]pyrazolo[4,3-f]quinazolin-4-yl]naphthalen-2-ol]
100 to 10000 | 100 to 10000 | – | – | CCc1c(F)ccc2cc(O)cc(-c3cc4nc(OC[C@@]56CCCN5C[C@H](F)C6)nc(N5CCC(C)(O)CC5)c4c4cn(C)nc34)c12 [Example 118, 1-[4-(8-ethyl-7-fluoro-3-hydroxy-1-naphthyl)-2-methyl-7-[[(2R,8S)-2-fluoro-1,2,3,5,6,7-hexahydropyrrolizin-8-yl]methoxy]pyrazolo[4,3-f]quinazolin-9-yl]-4-methyl-piperidin-4-ol]
